Experimental data published in patent publication US20230085307A1, “PYRIDAZINONE COMPOUND AND HERBICIDE” (NISSAN CHEMICAL CORPORATION, priority 2019, published 2023).

Legend:
green foxtail = test: Test Example 5: herbicidal effect by foliage application, plastic box (Table 20, symbol G); assay type: in vivo, green foxtail (Setaria viridis); details: foliage application, 320 g/ha, three weeks after application
Procedure, shortened: (§1)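 Foliar spray test: emulsion formulation diluted in water to a set application rate, sprayed onto 14-day-old plants raised in diluvial soil at 25° C to 30° C under glass. Both herbicidal effect and crop effect rated visually three weeks later.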

Japanese bulrush [1] = test: Test Example 1: herbicidal activity, application before weed generation under submerged conditions (Table 16, symbol B); assay type: in vivo, Japanese bulrush (Schoenoplectus juncoides)
Procedure, shortened: (§2)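 Emulsion formulation, water-diluted to set dose, was put onto the flooded surface (4 cm depth, alluvial soil) the same day weeds were sown and 2.5-leaf rice transplanted. After 3 weeks at 25-30 °C under glass, each species was rated 0 (≤5% kill) to 5 (≥90% kill).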

late watergrass [2] = test: Test Example 1: herbicidal activity, application before weed generation under submerged conditions (Table 16, symbol A); assay type: in vivo, late watergrass (Echinochloa oryzicola)
Procedure, shortened: as §2

rice flat sedge = test: Test Example 3: herbicidal effect by foliage application, Wagner pot (Table 18, symbol E); assay type: in vivo, rice flat sedge (Cyperus iria)
Procedure, shortened: (§3)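 Plants were sown in alluvial soil held under 0.1–0.5 cm standing water and grown 14 days in a greenhouse at 25–30 °C. An emulsifiable formulation, water-diluted to the set dose, was then sprayed onto the foliage, and effects were scored three weeks later using previously defined criteria.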

Japanese bulrush [3] = test: Test Example 2: herbicidal activity, application during weed generation under submerged conditions (Table 17, symbol B); assay type: in vivo, Japanese bulrush (Schoenoplectus juncoides); details: for herbicidal effect grade, B: Japanese bulrush: application during weed generation under submerged conditions
Procedure, shortened: (§4)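 Wagner pot, alluvial soil, 4 cm flood; mixed sowing of all species; greenhouse 25° C.–30° C. Emulsifiable formulation, water-diluted to predetermined dose, applied to paddy water at 1–2 leaf stage. Effect rated at 3 wk using the earlier test's scoring criteria.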

velvetleaf = test: Test Example 5: herbicidal effect by foliage application, plastic box (Table 20, symbol M); assay type: in vivo, velvetleaf (Abutilon theophrasti); details: foliage application, 320 g/ha, three weeks after application
Procedure, shortened: as §1

southern crabgrass = test: Test Example 5: herbicidal effect by foliage application, plastic box (Table 20, symbol F); assay type: in vivo, southern crabgrass (Digitaria ciliaris); details: foliage application, 320 g/ha, three weeks after application
Procedure, shortened: as §1

Chinese sprangletop = test: Test Example 3: herbicidal effect by foliage application, Wagner pot (Table 18, symbol D); assay type: in vivo, chinese sprangletop (Leptochloa chinensis)
Procedure, shortened: as §3

lambsquarters = test: Test Example 5: herbicidal effect by foliage application, plastic box (Table 20, symbol O); assay type: in vivo, lambsquarters (Chenopodium album); details: foliage application, 320 g/ha, three weeks after application
Procedure, shortened: as §1

oval-leafed pondweed [4] = test: Test Example 1: herbicidal activity, application before weed generation under submerged conditions (Table 16, symbol C); assay type: in vivo, oval-leafed pondweed (Monochoria vaginalis)
Procedure, shortened: as §2

oval-leafed pondweed [5] = test: Test Example 2: herbicidal activity, application during weed generation under submerged conditions (Table 17, symbol C); assay type: in vivo, oval-leafed pondweed (Monochoria vaginalis); details: for herbicidal effect grade, C: oval-leafed pondweed: application during weed generation under submerged conditions
Procedure, shortened: as §4

barnyard grass [6] = test: Test Example 3: herbicidal effect by foliage application, Wagner pot (Table 18, symbol H); assay type: in vivo, barnyard grass (Echinochloa crus-galli)
Procedure, shortened: as §3

barnyard grass [7] = test: Test Example 5: herbicidal effect by foliage application, plastic box (Table 20, symbol H); assay type: in vivo, barnyard grass (Echinochloa crus-galli); details: foliage application, 320 g/ha, three weeks after application
Procedure, shortened: as §1

late watergrass [8] = test: Test Example 2: herbicidal activity, application during weed generation under submerged conditions (Table 17, symbol A); assay type: in vivo, late watergrass (Echinochloa oryzicola); details: for herbicidal effect grade, A: late watergrass: application during weed generation under submerged conditions
Procedure, shortened: as §4

[9] = amount of applied herbicide 320 g/ha
[10] = AAH 320 g/ha, application during weed generation, submerged conditions
[11] = amount of applied herbicide 438 g/ha

Row | SMILES | Herbicidal effect, B: Japanese bulrush (Japanese bulrush [1]; [9]) | Herbicidal effect, A: late watergrass (late watergrass [2]; [9]) | Herbicidal effect, C: oval-leafed pondweed (oval-leafed pondweed [4]; [9]) | Herbicidal effect on E (rice flat sedge), foliage application (rice flat sedge; [9]) | herbicidal effect grade, B: Japanese bulrush (Japanese bulrush [3]; [9]) | Herbicidal effect on D (Chinese sprangletop), foliage application (Chinese sprangletop; [9]) | herbicidal effect grade, C: oval-leafed pondweed (oval-leafed pondweed [5]; [9]) | Herbicidal effect on H (barnyard grass), foliage application (barnyard grass [6]; [9]) | herbicidal effect grade, A: late watergrass (late watergrass [8]; [9]) | further results
1 | Cc1nn(C)c(=O)c(-c2c(-c3ccc(OC(F)(F)F)cc3)sc3cc(Cl)c(Cl)cc23)c1O [5-107] | 0 (Herbicidal rate of 5% or less (almost no effect)) | 3 (Herbicidal rate of 40% or more and less than 70%) | 0 (Herbicidal rate of 5% or less (almost no effect)) |  |  |  |  |  |  | herbicidal effect on green foxtail (G) (green foxtail): 2 (Herbicidal rate of 20% or more and less than 40%); herbicidal effect on rice flat sedge (E) (rice flat sedge; 320 g/ha): 0 (Herbicidal rate of 5% or less (almost no effect)); herbicidal effect rating, B: Japanese bulrush (Japanese bulrush [3]; [10]): 3 (Herbicidal rate of 40% or more and less than 70%); herbicidal effect on velvetleaf (M) (velvetleaf): 3 (Herbicidal rate of 40% or more and less than 70%); herbicidal effect on southern crabgrass (F) (southern crabgrass): 2 (Herbicidal rate of 20% or more and less than 40%); herbicidal effect on Chinese sprangletop (D) (Chinese sprangletop; 320 g/ha): 0 (Herbicidal rate of 5% or less (almost no effect)); herbicidal effect on lambsquarters (O) (lambsquarters): 4 (Herbicidal rate of 70% or more and less than 90%); herbicidal effect rating, C: oval-leafed pondweed (oval-leafed pondweed [5]; [10]): 3 (Herbicidal rate of 40% or more and less than 70%); herbicidal effect on barnyard grass (H) (barnyard grass [6]; 320 g/ha): 3 (Herbicidal rate of 40% or more and less than 70%); herbicidal effect on barnyard grass (H) (barnyard grass [7]): 3 (Herbicidal rate of 40% or more and less than 70%); herbicidal effect rating, A: late watergrass (late watergrass [8]; [10]): 3 (Herbicidal rate of 40% or more and less than 70%)
2 | CCCOc1ccc(-c2oc3ccc(C)cc3c2-c2c(OC(=O)CCC)c(C)nn(C)c2=O)cc1 [9-050] | 5 (Herbicidal rate of 90% or more (almost completely withered)) | 5 (Herbicidal rate of 90% or more (almost completely withered)) | 5 (Herbicidal rate of 90% or more (almost completely withered)) | 5 (Herbicidal rate of 90% or more (almost completely withered)) | 3 (Herbicidal rate of 40% or more and less than 70%) | 3 (Herbicidal rate of 40% or more and less than 70%) | 5 (Herbicidal rate of 90% or more (almost completely withered)) | 4 (Herbicidal rate of 70% or more and less than 90%) | 3 (Herbicidal rate of 40% or more and less than 70%) | 
3 | CCCC(=O)Oc1c(C)nn(C)c(=O)c1-c1c(-c2ccc(OCC(C)C)cc2)oc2ccc(C)cc12 [9-052] | 5 (Herbicidal rate of 90% or more (almost completely withered)) | 5 (Herbicidal rate of 90% or more (almost completely withered)) | 4 (Herbicidal rate of 70% or more and less than 90%) | 4 (Herbicidal rate of 70% or more and less than 90%) | 3 (Herbicidal rate of 40% or more and less than 70%) | 0 (Herbicidal rate of 5% or less (almost no effect)) | 4 (Herbicidal rate of 70% or more and less than 90%) | 5 (Herbicidal rate of 90% or more (almost completely withered)) | 3 (Herbicidal rate of 40% or more and less than 70%) | 
4 | CCCC(=O)Oc1c(C)nn(C)c(=O)c1-c1c(-c2ccc(SC)cc2)oc2ccc(C)cc12 [9-056] |  |  |  |  |  |  |  |  |  | Herbicidal effect, B: Japanese bulrush (Japanese bulrush [1]; [11]): 4 (Herbicidal rate of 70% or more and less than 90%); Herbicidal effect, A: late watergrass (late watergrass [2]; [11]): 5 (Herbicidal rate of 90% or more (almost completely withered)); Herbicidal effect on E (rice flat sedge), foliage application (rice flat sedge; [11]): 4 (Herbicidal rate of 70% or more and less than 90%); herbicidal effect grade, B: Japanese bulrush (Japanese bulrush [3]; [11]): 3 (Herbicidal rate of 40% or more and less than 70%); Herbicidal effect on D (Chinese sprangletop), foliage application (Chinese sprangletop; [11]): 3 (Herbicidal rate of 40% or more and less than 70%); Herbicidal effect, C: oval-leafed pondweed (oval-leafed pondweed [4]; [11]): 4 (Herbicidal rate of 70% or more and less than 90%); herbicidal effect grade, C: oval-leafed pondweed (oval-leafed pondweed [5]; [11]): 4 (Herbicidal rate of 70% or more and less than 90%); Herbicidal effect on H (barnyard grass), foliage application (barnyard grass [6]; [11]): 5 (Herbicidal rate of 90% or more (almost completely withered)); herbicidal effect grade, A: late watergrass (late watergrass [8]; [11]): 3 (Herbicidal rate of 40% or more and less than 70%)
